Source: US20210198277A1, “AMINE-SUBSTITUTED ARYL OR HETEROARYL COMPOUNDS” (Epizyme, Inc., priority 2016, published 2021)
pIC50: −log10 of the molar value.

What follows are compounds tested against T1, EHMT2 (Homo sapiens, UniProt Q96KQ7) (assay: MDA-MB-231 H3K9me2 in-cell Western assay (EHMT2 ICW)). Settings: Table III; MDA-MB-231 H3K9me2 in-cell Western; read-out: EHMT2 ICW (IC50 μM).
T1 construct: host or cells: MDA-MB-231
T1 sequence (Q96KQ7 1-1210): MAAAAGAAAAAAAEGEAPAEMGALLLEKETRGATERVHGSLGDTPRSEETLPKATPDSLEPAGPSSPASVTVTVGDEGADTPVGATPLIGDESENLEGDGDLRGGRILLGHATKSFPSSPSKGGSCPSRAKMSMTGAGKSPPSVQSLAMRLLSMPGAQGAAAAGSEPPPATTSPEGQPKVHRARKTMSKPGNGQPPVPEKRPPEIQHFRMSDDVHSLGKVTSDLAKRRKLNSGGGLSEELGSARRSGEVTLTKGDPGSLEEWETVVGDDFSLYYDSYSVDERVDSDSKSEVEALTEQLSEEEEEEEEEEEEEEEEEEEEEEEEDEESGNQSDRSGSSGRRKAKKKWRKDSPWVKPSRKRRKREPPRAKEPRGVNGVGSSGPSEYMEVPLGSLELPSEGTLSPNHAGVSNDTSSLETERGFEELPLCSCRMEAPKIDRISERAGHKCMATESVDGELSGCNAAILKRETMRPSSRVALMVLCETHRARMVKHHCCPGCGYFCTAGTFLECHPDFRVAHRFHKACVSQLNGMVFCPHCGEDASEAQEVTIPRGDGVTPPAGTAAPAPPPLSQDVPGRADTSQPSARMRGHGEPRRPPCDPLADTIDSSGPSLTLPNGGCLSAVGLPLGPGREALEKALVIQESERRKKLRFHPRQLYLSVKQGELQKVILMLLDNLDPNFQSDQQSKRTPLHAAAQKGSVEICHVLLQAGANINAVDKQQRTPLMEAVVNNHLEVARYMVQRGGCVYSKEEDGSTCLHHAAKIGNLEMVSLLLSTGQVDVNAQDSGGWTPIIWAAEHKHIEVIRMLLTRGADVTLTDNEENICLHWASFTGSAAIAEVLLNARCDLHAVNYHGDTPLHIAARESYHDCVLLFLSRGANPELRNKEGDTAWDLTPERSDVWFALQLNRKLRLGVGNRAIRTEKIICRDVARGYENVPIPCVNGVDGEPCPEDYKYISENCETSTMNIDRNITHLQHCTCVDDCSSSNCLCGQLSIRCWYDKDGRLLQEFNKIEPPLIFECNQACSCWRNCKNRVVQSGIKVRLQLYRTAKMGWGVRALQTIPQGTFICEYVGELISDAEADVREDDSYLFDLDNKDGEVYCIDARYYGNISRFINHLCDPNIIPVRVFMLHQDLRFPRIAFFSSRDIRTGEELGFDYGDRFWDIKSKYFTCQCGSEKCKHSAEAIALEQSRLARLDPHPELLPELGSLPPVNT
Assay type: cell-based
How it was run: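 Steps: compound added to plate, MDA-MB-231 cells plated in RPMI with 10% FBS, incubation for 48 h at 37 °C, fixation, overnight anti-H3K9me2 staining at 4 °C, and donkey anti-mouse 800CW with DRAQ5 counterstain. IC50 values come from percent inhibition fitted with a four-parameter model.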

SMILES	IC50 [µM]
CNc1cc(C)nc(Nc2ccc(OC)c(O[C@H]3C[C@H](N(C)C)C3)c2)n1 (single isomer, unassigned) [Compound 329, N^2-(3-((1r,3r)-3-(dimethylamino)cyclobutoxy)-4-methoxyphenyl)-N^4,6-dimethylpyrimidine-2,4-diamine]	> 10
COc1ccc(Nc2ccc3cnn(C)c3n2)cc1OCCCN1CCCC1 [Compound 257, N-(4-methoxy-3-(3-(pyrrolidin-1-yl)propoxy)phenyl)-1-methyl-1H-pyrazolo[3,4-b]pyridin-6-amine]	> 10
COc1ccc(Nc2cc3c(cn2)ncn3C)cc1OCCCN1CCCC1 [Compound 258, N-(4-methoxy-3-(3-(pyrrolidin-1-yl)propoxy)phenyl)-1-methyl-1H-imidazo[4,5-c]pyridin-6-amine]	> 10
COc1ccc(Nc2nccc(NCC3CCOCC3)n2)cc1OC1CCC2(CC1)CCN(C)C2 (stereo not shown) [Compound 259, N^2-(4-methoxy-3-((2-methyl-2-azaspiro[4.5]decan-8-yl)oxy)phenyl)-N^4-((tetrahydro-2H-pyran-4-yl)methyl)pyrimidine-2,4-diamine]	> 10
CNc1cnnc(Nc2cc(OCCCN3CCCC3)c(OC)cn2)c1 [Compound 322, N^3-(5-methoxy-4-(3-(pyrrolidin-1-yl)propoxy)pyridin-2-yl)-N^5-methylpyridazine-3,5-diamine]	0.1 to 1
CNc1cc(Nc2cc(OCCCN3CCCC3)c(OC)cn2)cnn1 [Compound 323, N^5-(5-methoxy-4-(3-(pyrrolidin-1-yl)propoxy)pyridin-2-yl)-N^3-methylpyridazine-3,5-diamine]	> 10
CNc1cc(Nc2cc(OCCCN3CCCC3)c(OC)cn2)nc(C)n1 [Compound 325, N^4-(5-methoxy-4-(3-(pyrrolidin-1-yl)propoxy)pyridin-2-yl)-N^6,2-dimethylpyrimidine-4,6-diamine]	1 to 10
COc1cnc(Nc2nc(C)nc3[nH]ccc23)cc1OCCCN1CCCC1 [Compound 326, N-(5-methoxy-4-(3-(pyrrolidin-1-yl)propoxy)pyridin-2-yl)-2-methyl-7H-pyrrolo[2,3-d]pyrimidin-4-amine]	1 to 10
CNc1nc(Nc2ccc(OC)c(OCCCN3CCCC3)c2)nc2c1CCC2 [Compound 328, N^2-(4-methoxy-3-(3-(pyrrolidin-1-yl)propoxy)phenyl)-N^4-methyl-6,7-dihydro-5H-cyclopenta[d]pyrimidine-2,4-diamine]	1 to 10
CNc1cc(C)nc(Nc2ccc(OC)c(O[C@H]3C[C@H](CN(C)C)C3)c2)n1 [Compound 331, N^2-(3-((1r,3r)-3-((dimethylamino)methyl)cyclobutoxy)-4-methoxyphenyl)-N^4,6-dimethylpyrimidine-2,4-diamine]	> 10
CCn1nc(Nc2nccc3[nH]ccc23)cc1COCCN1CCCC1 [Compound 333]	> 10
COc1ccc(Nc2nccc(-n3nc(C)cc3C)n2)cc1OCCCN1CCCC1 [Compound 338]	> 10
CNCc1cnc(Nc2ccc(OC)c(OCCCN3CCCC3)c2)nc1 [Compound 339]	> 10
COc1ccc(Nc2ccc3cnn(C)c3c2)cc1OCCCN1CCCC1 [Compound 341]	> 10
COc1ccc(Nc2ccc3nn(C)cc3c2)cc1OCCCN1CCCC1 [Compound 345]	> 10
COc1ccc(Nc2nccc(-c3cnn(C)c3)n2)cc1OCCCN1CCCC1 [Compound 348]	> 10
COc1ccc(OCCCN2CCCC2)cc1Nc1nccc(NCC2CCOCC2)n1 [Compound 351]	> 10
CNc1ccnc(Nc2ccc(OC)c(OCCCN3CC[C@@H](F)C3)c2)n1 [Compound 353]	1 to 10
CNc1ccnc(Nc2ccc(OC)c(OCCCN3CC(F)C3)c2)n1 [Compound 354]	1 to 10

Second part, the compound after the results:

IC50 [µM]	SMILES
> 10	COc1ccc(Nc2nccc(NCC3CCOCC3)n2)cc1OC1CCC2(CC1)CN(C)C2 [Compound 260, N^2-(4-methoxy-3-((2-methyl-2-azaspiro[3.5]nonan-7-yl)oxy)phenyl)-N^4-((tetrahydro-2H-pyran-4-yl)methyl)pyrimidine-2,4-diamine]
> 10	CNc1cc(Nc2cc(OCCCN3CCCC3)c(OC)cn2)ncn1 [Compound 324, N^4-(5-methoxy-4-(3-(pyrrolidin-1-yl)propoxy)pyridin-2-yl)-N^6-methylpyrimidine-4,6-diamine]
> 10	CNc1cc(C)nc(Nc2ccc(OC)c(OC[C@H]3C[C@H](N(C)C)C3)c2)n1 [Compound 330]
0.1 to 1	CNc1cc(C)nc(Nc2cnc(OC)c(OCCCN3CCCC3)c2)n1 [Compound 332, N^2-(6-methoxy-5-(3-(pyrrolidin-1-yl)propoxy)pyridin-3-yl)-N^4,6-dimethylpyrimidine-2,4-diamine]
1 to 10	COc1cnc(Nc2ccnc3[nH]ccc23)cc1OCCCN1CCCC1 [Compound 335, N-(5-methoxy-4-(3-(pyrrolidin-1-yl)propoxy)pyridine-2-yl)-1H-pyrrolo[2,3-b]pyridin-4-amine]
1 to 10	COc1cnc(Nc2cc(C)nc3[nH]ccc23)cc1OCCCN1CCCC1 [Compound 336, N-(5-methoxy-4-(3-(pyrrolidin-1-yl)propoxy)pyridin-2-yl)-6-methyl-1H-pyrrolo[2,3-b]pyridin-4-amine]
1 to 10	COc1ccc(Nc2nc(C)c(F)c(NC(C)C)n2)cc1OCCCN1CCCC1 [Compound 337]
> 10	COc1ccc(Nc2ccnc(NCC3CCN(C(C)=O)CC3)n2)cc1OCCCN1CCCC1 [Compound 340]
> 10	COc1ccc(Nc2ccc3ncn(C)c3n2)cc1OCCCN1CCCC1 [Compound 342]
> 10	COc1ccc(Nc2ncc3ncn(C)c3n2)cc1OCCCN1CCCC1 [Compound 343]
> 10	COc1ccc(Nc2cccc3ncnn23)cc1OCCCN1CCCC1 [Compound 344]
> 10	COc1ccc(Nc2cccc3cn(C)nc23)cc1OCCCN1CCCC1 [Compound 346]
> 10	COc1ccc(Nc2ccc3ncc(C)n3n2)cc1OCCCN1CCCC1 [Compound 347]
1 to 10	COc1ccc(Nc2nccc(Nc3cccc(F)c3)n2)cc1OCCCN1CCCC1 [Compound 349]
1 to 10	COc1ccc(Nc2nccc(NCC3CCOCC3)n2)cc1NCCCN1CCCC1 [Compound 350]
> 10	COc1ccc(NCCCN2CCCC2)cc1Nc1nccc(NCC2CCOCC2)n1 [Compound 352]

Same assay, conditions: Table VI; read-out: EHMT2 ICW IC50

SMILES	pIC50
CCN1CC(COc2cc(Nc3nc(C)cc4[nH]ccc34)ncc2OC)C1 [Compound 613]	5.00 to 6.00
CNc1cc(C)nc(Nc2cc(OCCCN3CCCC3)c3oncc3c2)n1 [Compound 793]	< 5.00
COc1ccc(Nc2nn(C)c3cnccc23)cc1OCCCN1CCCC1 [Compound 794]	< 5.00
CNc1cc(C)nc(Nc2cnc(OC)c(OC[C@@H]3CCN(C4CCC4)C3)c2)n1 [Compound 798]	6.00 to 7.00
CNc1cc(C2CCOCC2)c2cc(OC)c(OC[C@@H]3CCNC3)cc2n1 [Compound 802]	5.00 to 6.00
COc1cc(NC2CCOCC2)ncc1OCC1CCNC1 (stereo not shown) [Compound 806]	< 5.00

Second part, the compound after the results:

pIC50	SMILES
5.00 to 6.00	CNc1cc2nccn2c(Nc2cc(OCCCN3CCCC3)c(OC)cn2)n1 [Compound 611]
5.00 to 6.00	CNc1cc(C)nc(Nc2cc(OCCCN3CCCC3)c3nc(C)cn3c2)n1 [Compound 616]
< 5.00	CNc1cc(C)nc(Nc2cc(OCCCN3CCCC3)c3nccn3c2)n1 [Compound 618]
5.00 to 6.00	COc1cc2c(C3CCN(C)CC3)cc(C#N)nc2cc1OCCCN1CCCC1 [Compound 790]
< 5.00	COc1cnc(Nc2nn(C)c3cnccc23)cc1OCCCN1CCCC1 [Compound 795]
< 5.00	COc1ccc(Nc2cc(C)[nH]n2)cc1OCCCN1CCCC1 [Compound 796]
< 5.00	COc1ccc(Nc2cc(C)n(C)n2)cc1OCCCN1CCCC1 [Compound 797]
6.00 to 7.00	COc1ccc(Nc2nc(C)cc(NC(C)C)n2)cc1OC[C@@H]1CCNC1 [Compound 800]
< 5.00	COc1cnc(Nc2nccc3nccn23)cc1OC[C@@H]1CCNC1 [Compound 801]
5.00 to 6.00	CNc1cc(C2CCOCC2)c2cc(OC)c(OC[C@@H]3CCN(C)C3)cc2n1 [Compound 803]
< 5.00	COc1cc(N(C)C2CCOCC2)ncc1OCC1CCNC1 (stereo not shown) [Compound 808]
